This is an account of results in US12383539B2 (Cavion, Inc., priority 2018, dated 2025).

In this data set the test system is patients with essential tremor. The data set can be described thus: T-CALM: ECG, vital signs, laboratory and examination safety assessments. It counts as in vivo, human. As for the experimental part:
Electrocardiogram results were calculated as the average of the triplicate records at each time point. Baseline was defined as the mean of the triplicate values obtained pre-dose at Day 1. If this value was not available, the mean of the triplicate records obtained at screening were used.
Safety procedures involved collection of all TEAEs (treatment-emergent adverse events) coded into the Medical Dictionary for Regulatory Activities (MedDRA) version 20. Adverse events were classified by maximum severity, drug-related adverse events, serious adverse events, and adverse events leading to patient discontinuation.

SMILES strings stand for the structures.

Turning to `CC(C)c1ccc(CC(=O)N[C@H](C)c2ccc(OCC(F)(F)F)cn2)cc1` [CX-8998], where the note is “T-CALM, efficacious doses”, the “integrated analysis of electrocardiogram outliers” value is on record as “no CVS safety signals”. Further, for the setting “in vivo”, the “clinical laboratory parameters vs placebo” value was “No clinically meaningful differences”; the “vital signs, ECG, neurological and physical examinations” value is “No clinically significant abnormalities”.
